≈ marks a conversion by molar mass, not a printed value. Where a SMILES comes first, the peptide text is derived from it.
test system: Fusarium graminearum; conditions: not given

| Compound | MIC (μM) Fusarium graminearum |
| --- | --- |
| TKPCQSDKDCAAAACRKPKVPKCINGFCKCVR [NCR13_AlaV2] | Inactive |
| TKPCQSDKDCKKFACAAAAVPKCINGFCKCVR [NCR13_AlaV3] | Inactive |

same assay, conditions: 48 h

| Compound | MIC (μM) Fusarium graminearum [µM] |
| --- | --- |
| CC[C@H](C)[C@H](NC(=O)[C@H](CS)NC(=O)[C@H](CCCCN)NC(=O)[C@@H]1CCCN1C(=O)[C@@H](NC(=O)[C@H](CCCCN)NC(=O)[C@@H]1CCCN1C(=O)[C@H](CCCCN)NC(=O)[C@H](CCCNC(=N)N)NC(=O)[C@H](CS)NC(=O)[C@H](C)NC(=O)[C@H](Cc1ccccc1)NC(=O)[C@H](CCCCN)NC(=O)[C@H](CCCCN)NC(=O)[C@H](CS)NC(=O)[C@H](CC(=O)O)NC(=O)[C@H](CCCCN)NC(=O)[C@H](CC(=O)O)NC(=O)[C@H](CO)NC(=O)[C@H](CCC(N)=O)NC(=O)[C@H](CS)NC(=O)[C@@H]1CCCN1C(=O)[C@H](CCCCN)NC(=O)[C@@H](N)[C@@H](C)O)C(C)C)C(=O)N[C@@H](CC(N)=O)C(=O)NCC(=O)N[C@@H](Cc1ccccc1)C(=O)N[C@@H](CS)C(=O)N[C@@H](CCCCN)C(=O)N[C@@H](CS)C(=O)N[C@H](C(=O)N[C@@H](CCCNC(=N)N)C(=O)O)C(C)C [NCR13, reference compound] (H-TKPCQSDKDCKKFACRKPKVPKCINGFCKCVR-OH; N-terminus and C-terminus assumed) | 6 (≈ 22 µg/mL) |
| CC[C@H](C)[C@H](NC(=O)[C@H](CS)NC(=O)[C@H](CCCCN)NC(=O)[C@@H]1CCCN1C(=O)[C@@H](NC(=O)[C@H](CCCCN)NC(=O)[C@@H]1CCCN1C(=O)[C@H](CCCCN)NC(=O)[C@H](CCCNC(=N)N)NC(=O)[C@H](CS)NC(=O)[C@H](C)NC(=O)[C@H](Cc1ccccc1)NC(=O)[C@H](CCCCN)NC(=O)[C@H](CCCCN)NC(=O)[C@H](CS)NC(=O)[C@H](C)NC(=O)[C@H](C)NC(=O)[C@H](C)NC(=O)[C@H](C)NC(=O)[C@H](C)NC(=O)[C@H](CS)NC(=O)[C@@H]1CCCN1C(=O)[C@H](CCCCN)NC(=O)[C@@H](N)[C@@H](C)O)C(C)C)C(=O)N[C@@H](CC(N)=O)C(=O)NCC(=O)N[C@@H](Cc1ccccc1)C(=O)N[C@@H](CS)C(=O)N[C@@H](CCCCN)C(=O)N[C@@H](CS)C(=O)N[C@H](C(=O)N[C@@H](CCCNC(=N)N)C(=O)O)C(C)C [NCR13_AlaV1] (H-TKPCAAAAACKKFACRKPKVPKCINGFCKCVR-OH; N-terminus and C-terminus assumed) | 6 (≈ 20.7 µg/mL) |
| CC[C@H](C)[C@H](NC(=O)[C@H](CS)NC(=O)[C@H](C)NC(=O)[C@H](C)NC(=O)[C@H](C)NC(=O)[C@H](CCCCN)NC(=O)[C@@H]1CCCN1C(=O)[C@H](CCCCN)NC(=O)[C@H](CCCNC(=N)N)NC(=O)[C@H](CS)NC(=O)[C@H](C)NC(=O)[C@H](Cc1ccccc1)NC(=O)[C@H](CCCCN)NC(=O)[C@H](CCCCN)NC(=O)[C@H](CS)NC(=O)[C@H](CC(=O)O)NC(=O)[C@H](CCCCN)NC(=O)[C@H](CC(=O)O)NC(=O)[C@H](CO)NC(=O)[C@H](CCC(N)=O)NC(=O)[C@H](CS)NC(=O)[C@@H]1CCCN1C(=O)[C@H](CCCCN)NC(=O)[C@@H](N)[C@@H](C)O)C(=O)N[C@@H](CC(N)=O)C(=O)NCC(=O)N[C@@H](Cc1ccccc1)C(=O)N[C@@H](CS)C(=O)N[C@@H](CCCCN)C(=O)N[C@@H](CS)C(=O)N[C@H](C(=O)N[C@@H](CCCNC(=N)N)C(=O)O)C(C)C [NCR13_AlaV4] (H-TKPCQSDKDCKKFACRKPKAAACINGFCKCVR-OH; N-terminus and C-terminus assumed) | 12 (≈ 42.6 µg/mL) |
| CC(C)[C@H](NC(=O)[C@H](CS)NC(=O)[C@H](CCCCN)NC(=O)[C@H](CS)NC(=O)[C@H](C)NC(=O)[C@H](C)NC(=O)[C@H](C)NC(=O)[C@H](C)NC(=O)[C@H](CS)NC(=O)[C@H](CCCCN)NC(=O)[C@@H]1CCCN1C(=O)[C@@H](NC(=O)[C@H](CCCCN)NC(=O)[C@@H]1CCCN1C(=O)[C@H](CCCCN)NC(=O)[C@H](CCCNC(=N)N)NC(=O)[C@H](CS)NC(=O)[C@H](C)NC(=O)[C@H](Cc1ccccc1)NC(=O)[C@H](CCCCN)NC(=O)[C@H](CCCCN)NC(=O)[C@H](CS)NC(=O)[C@H](CC(=O)O)NC(=O)[C@H](CCCCN)NC(=O)[C@H](CC(=O)O)NC(=O)[C@H](CO)NC(=O)[C@H](CCC(N)=O)NC(=O)[C@H](CS)NC(=O)[C@@H]1CCCN1C(=O)[C@H](CCCCN)NC(=O)[C@@H](N)[C@@H](C)O)C(C)C)C(=O)N[C@@H](CCCNC(=N)N)C(=O)O [NCR13_AlaV5] (H-TKPCQSDKDCKKFACRKPKVPKCAAAACKCVR-OH; N-terminus and C-terminus assumed) | 6 (≈ 21.1 µg/mL) |
